Measured values reported in US20170079979A1, “THERAPY FOR SOLID TUMORS” (Children's Hospital Medical Center, priority 2014, published 2017).
Where a name gives a salt, the structure may show the parent alone.

Legend:
BaF3-BCR-ABL cells = conditions: Imatinib combined with BCI, cited from earlier work
HCC827 cells = test: HCC827 lung cancer cell survival with HGF and erlotinib (FIG. 2); format: cell-based; conditions: concomitant inhibition of Dusp-1 by BCI and c-Fos by either curcumin or DFC (combination), FIG. 2 right panel
Source text: HCC827 cell line was derived from the lung adenocarcinoma. This lung adenocarcinoma has an acquired mutation in the EGFR tyrosine kinase domain (E746-A750 deletion). […] Most patients develop resistance by acquiring gatekeeper mutation the kinase domain and single TKI treatment is not curative because cancer stem cells are refractory to the treatment. In addition overexpression of growth factor HGF leading to activation of MET is a more frequent way of bypassing the EGFR mediated survival in this tumor model. Besides, cancer stem cells in the presence of growth factor are not addicted to the oncogene.

RT4 cells = test: RT4 bladder cancer cell survival with EGF and PLX4032 (FIG. 4); format: cell-based; conditions: FIG. 4 right panel; for cell survival: concomitant inhibition of Dusp-1 by BCI and c-Fos by either curcumin or DFC (combination)
Procedure: To determine the effect of c-Fos and Dusp-1 inhibition with the tyrosine kinase inhibitor PLX4032, RT4 cells were assayed, as a model bladder cancer, shown in FIG. 4. This cell line was derived from bladder cancer patients, which has amplification of EGFR.

H1703 cells = test: H1703 lung sarcoma cell survival with EGF and sunitinib (FIG. 3); format: cell-based; conditions: concomitant inhibition of Dusp-1 by BCI and c-Fos by either curcumin or DFC (combination), FIG. 3 right panel
Procedure: H1703 cell line was derived from the lung sarcoma, which is driven by PDGFRA as this cell line has amplified the PDGFRA. This group of patients is treated with sunitinib.

parental BaF3 cells = conditions: cited from earlier work; for effect of the drug combination: Imatinib combined with BCI
AU565 cells = test: AU565 breast cancer cell survival with NRG1 and lapatinib (FIG. 1); format: cell-based; conditions: for cell survival: concomitant inhibition of Dusp-1 by BCI and c-Fos by either curcumin or DFC (combination), FIG. 1 right panel
Procedure: AU565 cell line was established from the malignant pleural effusion of the mammary gland, which overexpresses the HER2. This class of tumors is treated by lapatinib. This treatment is not curative and relapse is common because cancer stem cells are not responsive to the treatment.

[1] = system: leukemia initiating cells (LIC); conditions: cited from earlier work

Question: With `O=C1/C(=C/c2ccccc2)C(NC2CCCCC2)c2ccccc21` (centres unmarked) [BCI, (E)-2-benzylidene-3-(cyclohexylamino)-2,3-dihydro-1H-inden-1-one] as the molecule, how does the “effect of the drug combination” value (BaF3-BCR-ABL cells; BCR-ABL positive cells) read?
Answer: no effect

Question: What about the “sensitivity in cell proliferation assay” value (BaF3-BCR-ABL cells; BaF3-BCR-ABL cells with c-Fos knockdown) of the same molecule?
Answer: fully sensitive

Question: And the cell survival (HCC827 cells)?
Answer: completely suppresses the cell survival

Question: What about the cell survival (RT4 cells) of the same molecule?
Answer: completely suppresses the cell survival

Question: And the cell survival (H1703 cells)?
Answer: completely suppresses the cell survival

Question: And the “effect of the drug combination” value (parental BaF3 cells)?
Answer: no effect

Question: What about the cell survival (AU565 cells) of the same molecule?
Answer: completely suppresses the cell survival

Question: For `COc1cc(/C=C/C(=O)C(=Cc2ccc(F)c(F)c2)C(=O)/C=C/c2ccc(O)c(OC)c2)ccc1O` [DFC, difluorinated curcumin], which cell survival (RT4 cells) is on record?
Answer: completely suppresses the cell survival

Question: And the cell survival (H1703 cells)?
Answer: completely suppresses the cell survival

Question: And the cell survival (AU565 cells)?
Answer: completely suppresses the cell survival

Question: What does the source list for `Cc1ccc(NC(=O)c2ccc(CN3CCN(C)CC3)cc2)cc1Nc1nccc(-c2cccnc2)n1` [Imatinib, Imatinib mesylate]?
Answer: survival of patients with leukemia [1]: improved the survival; elimination of leukemia initiating cells (LIC) ([1]; patients with leukemia): did not eliminate; effect of the drug combination (parental BaF3 cells): no effect; survival and apoptosis (parental BaF3 cells; inhibition of c-Fos and Dusp-1 together with Imatinib treatment): no effect

Question: Which results are given for `COc1cc(/C=C/C(=O)CC(=O)/C=C/c2ccc(O)c(OC)c2)ccc1O` [curcumin]?
Answer: cell survival (HCC827 cells): completely suppresses the cell survival; relative potency of the BCI combination (curcumin versus DFC) (RT4 cells; combination with BCI): more potent; cell survival (RT4 cells): completely suppresses the cell survival; cell survival (H1703 cells): completely suppresses the cell survival; cell survival (AU565 cells): completely suppresses the cell survival

Question: Which “TKI response on addition of growth factor” value (AU565 cells; addition of NRG1, lapatinib) does the source give for `CS(=O)(=O)CCNCc1ccc(-c2ccc3ncnc(Nc4ccc(OCc5cccc(F)c5)c(Cl)c4)c3c2)o1` [lapatinib] here?
Answer: confer resistance
